From patent publication US20260232796A1, “COMBINATION THERAPIES WITH AN ANTI-FACTOR XI/FACTOR XIA ANTIBODY” (Anthos Therapeutics, Inc., priority 2022, published 2026) come the findings set out here.

Experiment [1] concerns platelet aggregation. Briefly: Impedance platelet aggregometry in whole blood spiked with aspirin +/- Antibody 1. The class given is cell-based. The following applies: Homo sapiens, aspirin 1 mg/mL. As to the method:
Two studies were conducted concurrently. Blood specimens were obtained in EDTA and citrate tubes (6 healthy donors for each study). In the first study, whole blood was spiked with vehicle, aspirin (1 mg/mL), or aspirin (1 mg/mL)+Antibody 1 (125, 250, and 500 nM). Platelet aggregation was measured by impedance platelet aggregometry following induction with collagen (3.2 μg/mL) or arachidonic acid (0.5 mM) (Multiplate® analyzer, COLtest and ASPItest reagents; Roche Diagnostics International Ltd, Rotkreuz, Switzerland).

The test system of experiment [2] is platelet aggregation. Briefly: Impedance platelet aggregometry in whole blood spiked with ticagrelor +/- Antibody 1. The class given is cell-based, human. The following applies: ticagrelor 3 μM. Here is the method:
In the second study, whole blood was spiked with vehicle, ticagrelor (3 μM), or ticagrelor (3 μM)+Antibody 1 (125, 250, and 500 nM). Platelet aggregation was measured with the same methodology following induction by ADP (6.4 μM) or thrombin receptor activating peptide-6 (TRAP-6, 32 μM).

Experiment [3] relates to platelet aggregation. Briefly: Whole blood platelet aggregation, multiplate impedance aggregometer (Example 1). The class given is cell-based, human. The following applies: collagen 1 μg/mL, Antibody 1 250, 500 or 1000 nM, abciximab 50 nM, vs vehicle. As to the method: (§1) Whole blood was obtained in EDTA and citrate tubes (6 healthy donors). Specimens were spiked with vehicle, Antibody 1 (250, 500, or 1000 nM), or abciximab (50 nM). Platelet aggregation was recorded following induction using collagen (1 μg/mL) or TRAP-6 (8 μM) using a multiplate impedance aggregometer. The area under the curve (AUC) for platelet aggregation was determined in arbitrary aggregation*time (AU*min). Thrombin generation was also measured at the above Antibody 1 and abciximab concentrations in platelet-rich plasma using Thrombinoscope CAT (Calibrated Automated Thrombogram; Stago CH S.A. and tissue factor reagent (1 μM); fluorescence was measured by an automated plate reader fluorometer.

Experiment [4] has as its system thrombin generation. Briefly: Thrombin generation in platelet-rich plasma, Calibrated Automated Thrombogram. The class given is biochemical, human. The conditions noted are these: tissue factor reagent, abciximab 50 nM. Here is the method: as §1

As a reminder, the inhibition is the share of the control response that was lost under treatment.

Where two headings read alike, the source gives them in different places.

For the molecule `CC(=O)Oc1ccccc1C(=O)O` [aspirin], the inhibition at 1000 µg/mL is 71% in experiment [1] (arachidonic acid 0.5 mM, p<0.05, read-out: inhibition of platelet aggregation induced with arachidonic acid) and 60% in experiment [1] (collagen 3.2 μg/mL, p<0.05, read-out: inhibition of platelet aggregation induced with collagen).

Consider `CCCSc1nc(N[C@@H]2C[C@H]2c2ccc(F)c(F)c2)c2nnn([C@@H]3C[C@H](OCCO)[C@@H](O)[C@H]3O)c2n1` [ticagrelor], for which the inhibition at 3 µM in experiment [2] (Homo sapiens, Platelet, ADP 6.4 μM, p<0.05, read-out: inhibition of platelet aggregation induced with ADP) was 54%. For the same molecule, in experiment [2] (TRAP-6 32 μM, p<0.05), the “inhibition of platelet aggregation induced with TRAP-6” value is reported as 31%.

B1: abciximab (antibody, chains of the INN, looked up, V domains shown)
VH: EVQLQQSGTVLARPGASVKMSCEASGYTFTNYWMHWVKQRPGQGLEWIGAIYPGNSDTSYIQKFKGKAKLTAVTSTTSVYMELSSLTNEDSAVYYCTLYDGYYVFAYWGQGTLVTVSA
VL: EIVLTQSPVTLSVTPGDSVSLSCRASRDISNNLHWFQQTSHESPRLLIKYASQSMSGIPSRFSGSGSGTDFTLSINSVETEDFGMYFCQQTNSWPYTFGGGTKLEIK
modifications: Fab
Turning to B1, in experiment [3], the “platelet aggregation induced by collagen” value is recorded as “significant reductions”. Also, the “effect on thrombin generation” value in experiment [4] was “no effect”.
